Test results taken from patent EP0677522A1, “8-METHOXYQUINOLONECARBOXYLIC ACID DERIVATIVE” (priority 1992, dated 1994).
Converted amounts (≈) assume the structure as drawn.

Key:
E. coli KC-14 [1] = assay: MIC of the infectious bacteria used for experimental infection; format: cell-based; details: Escherichia coli, KC14; infectious strain of the mouse protection test
Procedure: (§1) The in vitro antibacterial activity (minimum inhibitory concentration, MIC, µg/ml) of the test compounds was determined according to Japan Society of Chemotherapy Standard [Chemotherapy, vol. 29, pp 76-79 (1981)].
(§2) Experimental infection was caused by intraperitoneal inoculation of respective bacteria to male mice. One hour after the inoculation, a test compound was orally administered to the mice. The therapeutic effect of each test compound was evaluated by reference to the 50% effective dose (ED₅₀) which was based on the survival ratio at 7 days after the administration according to the probit method [Proc. Soc. Exp. Med., Vol. 57, p 261-264 (1944)]. The minimum inhibitory concentration (MIC) of the infectious bacteria used was also determined. […]

S. aureus MRSA Y-238 [2] = assay: as above; format: cell-based; details: Staphylococcus aureus, infectious strain of the mouse protection test
Procedure: as §1, §2

S. aureus Smith [3] = assay: as above; format: cell-based; details: Staphylococcus aureus; infectious strain of the mouse protection test
Procedure: as §1, §2

E. faecium EFMY-28 = assay: In vitro antibacterial activity (MIC), Japan Society of Chemotherapy Standard; format: cell-based; details: Enterococcus faecium, EFMY28; inoculated cells 10⁶ cells/ml
Procedure: as §1
(§3) Inoculated cells were 10⁶ cells/ml and the strain with * was incubated in a medium supplemented with 10% horse blood. The mark "1)" means quinolone resistant MRSA and "2)" means quinolone resistant bacteria.

M.catarrhalis ATCC 25238 = assay: as above; format: cell-based; details: Moraxella catarrhalis, ATCC25238; inoculated cells 10⁶ cells/ml; medium supplemented with 10% horse blood
Procedure: as §1, §3

[4] = system: Streptococcus pyogenes C-203; assay: as above; format: cell-based; details: C203, inoculated cells 10⁶ cells/ml, medium supplemented with 10% horse blood
Procedure: as §1, §3

[5] = system: Proteus vulgaris IFO 3988; assay: as above; format: cell-based; details: IFO3988, inoculated cells 10⁶ cells/ml
Procedure: as §1, §3

[6] = system: Enterococcus faecalis LS-101; assay: as above; format: cell-based; details: LS101, inoculated cells 10⁶ cells/ml
Procedure: as §1, §3

[7] = system: Serratia marcescens IFO 12648; assay: as above; format: cell-based; details: IFO12648, inoculated cells 10⁶ cells/ml
Procedure: as §1, §3

P. mirabilis IFO 3849 = assay: as above; format: cell-based; details: Proteus mirabilis, IFO3849; inoculated cells 10⁶ cells/ml
Procedure: as §1, §3

L.monocytogenes VTU-206 = assay: as above; format: cell-based; details: Listeria monocytogenes, VTU206; inoculated cells 10⁶ cells/ml; medium supplemented with 10% horse blood
Procedure: as §1, §3

S. pneumoniae Type-III = assay: as above; format: cell-based; details: Streptococcus pneumoniae; inoculated cells 10⁶ cells/ml; medium supplemented with 10% horse blood
Procedure: as §1, §3

[8] = system: Staphylococcus aureus FDA 209P; assay: as above; format: cell-based; details: FDA209P, inoculated cells 10⁶ cells/ml
Procedure: as §1, §3

P.aeruginosa U-31 = assay: as above; format: cell-based; details: Pseudomonas aeruginosa, U31; inoculated cells 10⁶ cells/ml
Procedure: as §1, §3

[9] = system: Escherichia coli NIHJ JC-2; assay: as above; format: cell-based; details: NIHJJC2, inoculated cells 10⁶ cells/ml
Procedure: as §1, §3

E. avium EAY-30 = assay: as above; format: cell-based; details: Enterococcus avium, EAY30, inoculated cells 10⁶ cells/ml
Procedure: as §1, §3

K.pneumoniae DT-S = assay: as above; format: cell-based; details: Klebsiella pneumoniae; inoculated cells 10⁶ cells/ml
Procedure: as §1, §3

[10] = system: Enterobacter cloacae IFO 12937; assay: as above; format: cell-based; details: IFO12937, inoculated cells 10⁶ cells/ml
Procedure: as §1, §3

[11] = system: S. epidermidis ATCC 12228; assay: as above; format: cell-based; details: Staphylococcus epidermidis, ATCC12228; inoculated cells 10⁶ cells/ml
Procedure: as §1, §3

[12] = system: Citrobacter freundii IFO 12681; assay: as above; format: cell-based; details: IFO12681, inoculated cells 10⁶ cells/ml
Procedure: as §1, §3

[13] = system: A.calcoaceticus IFO 13006; assay: as above; format: cell-based; details: Acinetobacter calcoaceticus, IFO13006; inoculated cells 10⁶ cells/ml
Procedure: as §1, §3

Shigella flexneri EW-10 = assay: as above; format: cell-based; details: EW10, inoculated cells 10⁶ cells/ml
Procedure: as §1, §3

S. aureus No.88 = assay: as above; format: cell-based; details: Staphylococcus aureus; quinolone resistant MRSA; inoculated cells 10⁶ cells/ml
Procedure: as §1, §3

male ICR mice = assay: Preliminary micronucleus test; format: in vivo; details: for Emergence of micronucleus in polychromatic cells compared with the control group: after 24 hours, Example 5: in the dose of 1,000 mg/kg or above
Procedure: A preliminary micronucleus test was performed by oral administration to male ICR mice. […]

E. coli KC-14 [14] = assay: Protection of mice from experimental infection; format: in vivo; details: Table 3-1: male mice; intraperitoneal inoculation 5.0×10⁶ cells/mouse (744×LD₅₀); oral administration one hour after inoculation; survival ratio at 7 days
Procedure: as §2

S. aureus MRSA Y-238 [15] = assay: Protection of mice from experimental infection; format: in vivo; details: Table 3-1: male mice; intraperitoneal inoculation 7.5×10⁶ cells/mouse (185×LD₅₀); oral administration one hour after inoculation; survival ratio at 7 days
Procedure: as §2

S. aureus Smith [16] = assay: Protection of mice from experimental infection; format: in vivo; details: male mice; intraperitoneal inoculation 2.8×10⁶ cells/mouse (123×LD₅₀); oral administration one hour after inoculation; survival ratio at 7 days, probit method
Procedure: as §2

[17] = system: Chlamydia trachomatis D/UW-3Cx; assay: Antibacterial effect against specific bacteria (MIC); format: cell-based; details: same manner as Experimental Example 1
Procedure: as §1
(§4) In the same manner as in Experimental Example 1, the antibacterial effect against specific bacteria such as Chlamydia, Mycoplasma and acid-fast bacteria and anaerobic bacteria was determined.

[18] = system: Mycoplasma pneumoniae ATCC 29343; assay: as above; format: cell-based; details: ATCC29343, same manner as Experimental Example 1
Procedure: as §1, §4

[19] = system: Ureaplasma urealyticum ATCC 27618; assay: as above; format: cell-based; details: ATCC27618, same manner as Experimental Example 1
Procedure: as §1, §4

[20] = system: Bacteroides fragilis GAI 5560; assay: as above; format: cell-based; details: GAI5560, same manner as Experimental Example 1
Procedure: as §1, §4

[21] = system: Mycobacterium smegmatis IFO 13167; assay: as above; format: cell-based; details: Mycolicibacterium smegmatis, IFO13167; same manner as Experimental Example 1
Procedure: as §1, §4

Compound | MIC (E. faecium EFMY-28) | MIC (M.catarrhalis ATCC 25238) | MIC [4] | MIC [5] | MIC [6] | MIC [7] | MIC (P. mirabilis IFO 3849) | MIC (L.monocytogenes VTU-206) | MIC (S. pneumoniae Type-III) | MIC [8] | MIC (P.aeruginosa U-31) | MIC [9] | MIC (E. avium EAY-30) | MIC (K.pneumoniae DT-S) | MIC [10] | MIC [11] | MIC [12] | MIC [13] | MIC (Shigella flexneri EW-10) | MIC (S. aureus No.88) | other results
COc1c(N2CC[C@@](N)(CF)C2)c(F)cc2c(=O)c(C(=O)O)cn(C3CC3)c12 [Example 6, (S)-7-(3-amino-3-fluoromethylpyrrolidin-1-yl)-1-cyclopropyl-6-fluoro-1,4-dihydro-8-methoxy-4-oxo-3-quinoline carboxylic acid] | 0.2 mg/L (≈ 0.508 µM) | 0.012 mg/L (≈ 0.0305 µM) | 0.05 mg/L (≈ 0.127 µM) | 0.39 mg/L (≈ 0.991 µM) | 0.012 mg/L (≈ 0.0305 µM) | 0.2 mg/L (≈ 0.508 µM) | 0.2 mg/L (≈ 0.508 µM) | 0.1 mg/L (≈ 0.254 µM) | 0.025 mg/L (≈ 0.0636 µM) | ≤ 0.006 mg/L | 0.39 mg/L (≈ 0.991 µM) | 0.025 mg/L (≈ 0.0636 µM) | 0.1 mg/L (≈ 0.254 µM) | 0.05 mg/L (≈ 0.127 µM) | 0.2 mg/L (≈ 0.508 µM) | ≤ 0.006 mg/L | 0.1 mg/L (≈ 0.254 µM) | 0.025 mg/L (≈ 0.0636 µM) | 0.012 mg/L (≈ 0.0305 µM) | 0.39 mg/L (≈ 0.991 µM) | MIC (E. coli KC-14 [1]): 0.012 mg/L; MIC (S. aureus MRSA Y-238 [2]): 0.39 mg/L; MIC (S. aureus Smith [3]): ≤ 0.006 mg/L; Emergence of micronucleus in polychromatic cells compared with the control group (male ICR mice; oral): did not show significant difference in emergence of micronucleus; Emergence of micronucleus (%) (male ICR mice; oral, dose 500 mg/kg): 0.16±0.16%; Emergence of micronucleus (%) (male ICR mice; oral, dose 1000 mg/kg): 0.16±0.11%; Emergence of micronucleus (%) (male ICR mice; oral, dose 2000 mg/kg): 0.26±0.04%; ED₅₀ (mg/mouse) (95% confidence limit) (E. coli KC-14 [14]): 0.011(0.008-0.015) mg/mouse; ED₅₀ (mg/mouse) (95% confidence limit) (S. aureus MRSA Y-238 [15]): 1.54(1.103-2.151) mg/mouse; ED₅₀ (mg/mouse) (95% confidence limit) (S. aureus Smith [16]): 0.036(0.025-0.052) mg/mouse; MIC [17]: 0.012 mg/L (≈ 0.0305 µM); MIC [18]: 0.025 mg/L (≈ 0.0636 µM); MIC [19]: 0.1 mg/L (≈ 0.254 µM); MIC [20]: 0.05 mg/L (≈ 0.127 µM); MIC [21]: 0.1 mg/L (≈ 0.254 µM)
COc1c(N2CC[C@](N)(CF)C2)c(F)cc2c(=O)c(C(=O)O)cn(C3CC3)c12 [Example 5, (R)-7-(3-amino-3-fluoromethylpyrrolidin-1-yl)-1-cyclopropyl-6-fluoro-1,4-dihydro-8-methoxy-4-oxo-3-quinolinecarboxylic acid] | 0.1 mg/L (≈ 0.254 µM) | 0.012 mg/L (≈ 0.0305 µM) | 0.05 mg/L (≈ 0.127 µM) | 0.39 mg/L (≈ 0.991 µM) | 0.012 mg/L (≈ 0.0305 µM) | 0.2 mg/L (≈ 0.508 µM) | 0.2 mg/L (≈ 0.508 µM) | 0.1 mg/L (≈ 0.254 µM) | 0.012 mg/L (≈ 0.0305 µM) | ≤ 0.006 mg/L | 0.39 mg/L (≈ 0.991 µM) | 0.025 mg/L (≈ 0.0636 µM) | 0.1 mg/L (≈ 0.254 µM) | 0.05 mg/L (≈ 0.127 µM) | 0.2 mg/L (≈ 0.508 µM) | 0.012 mg/L (≈ 0.0305 µM) | 0.05 mg/L (≈ 0.127 µM) | 0.025 mg/L (≈ 0.0636 µM) | 0.012 mg/L (≈ 0.0305 µM) | 0.78 mg/L (≈ 1.98 µM) | Emergence of micronucleus in polychromatic cells compared with the control group (male ICR mice; oral): showed significant increase in emergence frequency of micronucleus; Emergence of micronucleus (%) (male ICR mice; oral, dose 500 mg/kg): 0.45±0.28 %; Emergence of micronucleus (%) (male ICR mice; oral, dose 1000 mg/kg): 1.45±1.45 %; Emergence of micronucleus (%) (male ICR mice; oral, dose 2000 mg/kg): 2.38±0.85 %
CO[C@@]12[C@H](COC(N)=O)C3=C(C(=O)C(C)=C(N)C3=O)N1C[C@@H]1N[C@@H]12 [MMC, mitomycin C, reference compound] | – | – | – | – | – | – | – | – | – | – | – | – | – | – | – | – | – | – | – | – | Emergence of micronucleus (%) (male ICR mice; dose 1 mg/kg (positive control)): 2.36±1.52 %
